Values joined by “and” are separate entries in the source; they are usually repeats but may differ in a detail not shown here. Equal entries are not always repeated.

For one assay, the system named is haemoglobin. Description: Haemoglobin concentration in brain homogenate (rapid cyanhaemiglobin method) after one-off i.p. erythropoetin injection. The class given is in vivo, mice. The settings on record: 5000 units/kg i.p., 24 hours after injection, perfused brain, n=3. The procedure:
In continuation of Example 3, the haemoglobin concentration was also determined in the brain of mice to whom intraperitoneal erythropoetin (Erypo made by the company Janssen) had been administered (5000 units/kg body weight). After injection of EPO, the mice were terminally anaesthetised after 24 hours by injection with Rompun/Ketanest, and the blood was rinsed out of the vascular system of the brain by transcardial perfusion with 40 ml Hanks balanced salt solution (HBSS). […] The protein content of the samples was determined according to the Bradford method (Bradford, 1976, Anal. Biochem. 72, 248-254). The haemoglobin concentration was measured with the rapid cyanhaemiglobin method (van Kampen and Zijlstra, 1961, Clin. Chim. Acta 6, 538-544). […] The extinction at 546 nm was then measured and multiplied by 36.7 to obtain the concentration in g/dl. These values were then related to the protein concentration/volume brain tissue, giving the following values (including the measured transgenic animals from Example 3): control animals: 32.54±17.51 μg/mg brain protein (n=10); EPO-transgenic animals (line tg6): 79.00±32.12 (n=13); EPO-injected animals (24 hours after injection): 77.14±13.51 μg/mg brain protein (n=3). […]

In assay [1] the test system is δ-aminolaevulinic acid synthase (ALAS) mRNA. Description: Quantitative PCR for ALAS mRNA in brain of EPO-injected animals. The class given is in vivo. The source says: The primer sequences used and PCR conditions were, for ALAS:
(annealing temperature: 60 C.; measurement temperature: 83 C.; 45 cycles), and for DALDH: Daldh_m—1 s: […] (SEQ ID NO:12), daldh_m—1 as: […] (SEQ ID NO: 13) (annealing temperature: 60 C.; measurement temperature: 85 C.; 45 cycles).
Through the daily administration of this dosage of EPO for 7 days, induction factors of up to 130 times were achieved: sham: 1±0.64; EPO-injected animal 1 (Epo—1)=11.67±5.46; EPO-injected animal 2 (Epo—2)=118.93±31.02; EPO-injected animal 3 (Epo—3)=44.88±15.15; EPO-injected animal 4 (Epo—4)=129.47±8.77 (FIG. 18).

A further assay has as its system neuroglobin mRNA. The assay is described as follows: Quantitative PCR for neuroglobin mRNA after erythropoetin injection. The class given is in vivo. The settings on record: 5000 units/kg i.p., single injection. The source says: (§1) However, it has important biochemical characteristics which fundamentally distinguish it from the globins, e.g. a far higher oxygen affinity (Dewilde et al. (2001), Journal of Biological Chemistry, 276, 38949-55). Neuroglobin is neuroprotective, although the mechanism here is not known (Sun et al. (2001), Proc. Natl. Acad. Sci. USA, 98, 15306-11, Venis (2001), Lancet, 358, 2055, Sun et al. (2003), Proc. Natl. Acad. Sci. USA, 5, 5). To determine whether neuroglobin possibly also plays a role in erythropoetin-conveyed neuroprotection, the relative content of neuroglobin mRNA after EPO administration was determined using relative quantitative PCR in comparison with cyclophilin. 5000 units of EPO/kg body weight were applied i.p. and the animals were killed after transcardial perfusion. RNA and cDNA were obtained using standard methods. From serial dilutions of the cDNA (3 times serial dilutions), the levels of cyclophilin and neuroglobin were determined and the ratio of neuroglobin/cyclophilin in the sham-treated animals set at 1. The standard deviations in the following values relate to measurements at different dilutions (n=4) and represent the measurement accuracy. The primers used were: ng1_m_LC—1s: […] (SEQ ID NO: 14), ng1_m_LC—1as: […] (SEQ ID NO: 15) for neuroglobin. […]

The test system of the next assay is alpha globin. Description: alpha globin induction in the animals of the neuroglobin experiment. The assay is classed as in vivo. To be noted: same animals as neuroglobin test, 5000 units/kg i.p.
Description: as §1

A further assay deals with beta globin. The assay is described as follows: beta globin induction in the animals of the neuroglobin experiment. The assay is classed as in vivo. To be noted: same animals as neuroglobin test, 5000 units/kg i.p.
Description: as §1

The mark [2] stands for this setting: 5000 units/kg i.p. daily for 7 days.

Take Erythropoietin [EPO]: in the assay with haemoglobin, the “haemoglobin concentration related to brain protein” value came to 77.14±13.51 μg/mg brain protein. Also, the ALAS induction factors entry in assay [1] (setting [2]) was “up to 130 times”. Besides, the “ALAS mRNA level (sham = 1), individual animals” value in assay [1] (setting [2]) is 11.67±5.46 and 118.93±31.02 and 44.88±15.15 and 129.47±8.77; in assay [1] (one-off dose 5000 units/kg i.p., 24 h), 10.07±0.00 and 8.76±0.18 and 14.69±0.27. Also, the ALAS induction entry in assay [1] (same animals as neuroglobin test, 5000 units/kg i.p.) is “approx. 10 times”. The “ratio neuroglobin/cyclophilin mRNA (sham-treated set at 1), individual animals” value in the assay with neuroglobin mRNA was “no induction and 1.01±0.15 and 0.99±0.15 and 1.04±0.13”. Also, the alpha globin induction entry in the assay with alpha globin is reported as “approx. 14 times”. Besides, the beta globin induction entry in the assay on beta globin is on record as “approx. 10 times”.

Values taken from US7575857B2, “Screening method for identifying protective substances for treating neurodegenerative and/or ischemic disorders” (SYGNIS Bioscience GmbH & Co. KG, priority 2002, dated 2009).
